By IC50 is commonly meant the concentration needed to halve the response being measured. What is called ΔTm is the change in melting temperature against a reference sample.

Experiment [1] concerns the target SOS1-KRAS (Homo sapiens, UniProt Q07889). The experiment in a line: Inhibition of N-terminal GST-tagged recombinant human KRAS G12C mutant (1 to 169 residues) expressed in Escherichia coli/N-terminal His10-tagged wild-type recombinant human SOS1 catalytic domain (564 to 1049 residues) expressed in Escherichia coli protein-protein interaction preincubated for 2 mins with KRAS followed by SOS1 addition measured after 60 mins in presence of anti-6His-XL665 by HTRF analysis. In general terms: In TR-FRET formats the signal depends on donor and acceptor labels being close together.

In experiment [2] the target is Serine/threonine-protein kinase PLK3 (Homo sapiens) (UniProt Q9H4B4). The experiment is described as follows: Inhibition of PLK3 (unknown origin) assessed as residual activity at 100 nM by KINOMEscan analysis relative to control.
The target of experiment [3] is T1, Mitogen-activated protein kinase 12 (Homo sapiens) (UniProt P53778).
T1 sequence (whole entry): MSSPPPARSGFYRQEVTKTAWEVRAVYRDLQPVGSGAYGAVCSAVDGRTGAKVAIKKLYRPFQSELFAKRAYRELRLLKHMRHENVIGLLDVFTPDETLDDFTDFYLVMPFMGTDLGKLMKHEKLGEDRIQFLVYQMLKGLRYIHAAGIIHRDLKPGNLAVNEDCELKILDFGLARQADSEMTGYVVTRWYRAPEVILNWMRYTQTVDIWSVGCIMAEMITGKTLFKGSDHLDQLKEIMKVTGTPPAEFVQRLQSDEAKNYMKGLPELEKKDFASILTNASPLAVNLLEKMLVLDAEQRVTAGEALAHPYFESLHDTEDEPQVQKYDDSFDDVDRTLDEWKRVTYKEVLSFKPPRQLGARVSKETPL
The experiment is described as follows: Inhibition of p38-gamma (unknown origin) assessed as residual activity at 100 nM by KINOMEscan analysis relative to control.

The subject of experiment [4] is Leucine-rich repeat serine/threonine-protein kinase 2 (Homo sapiens), Q5S007 [G2019S]. The experiment is described as follows: Inhibition of LRRK2 G2019S mutant (unknown origin) assessed as residual activity at 100 nM by KINOMEscan analysis relative to control.
Experiment [5] deals with Insulin receptor (Homo sapiens) (UniProt P06213). The experiment in a line: Inhibition of INSR (unknown origin) assessed as residual activity at 100 nM by KINOMEscan analysis relative to control.
For experiment [6], the target named is GTPase KRas (Homo sapiens) (UniProt P01116). The experiment in a line: Binding affinity to N-terminal His10-tagged wild-type human KRAS (1 to 169 residues) expressed in Escherichia coli assessed as binding at 1:1 stoichiometry at 100 uM incubated for 1 hr by native MS analysis.
Experiment [7] addresses T2, cGMP-dependent protein kinase 1 (Homo sapiens) (UniProt Q13976).
T2 sequence (whole entry): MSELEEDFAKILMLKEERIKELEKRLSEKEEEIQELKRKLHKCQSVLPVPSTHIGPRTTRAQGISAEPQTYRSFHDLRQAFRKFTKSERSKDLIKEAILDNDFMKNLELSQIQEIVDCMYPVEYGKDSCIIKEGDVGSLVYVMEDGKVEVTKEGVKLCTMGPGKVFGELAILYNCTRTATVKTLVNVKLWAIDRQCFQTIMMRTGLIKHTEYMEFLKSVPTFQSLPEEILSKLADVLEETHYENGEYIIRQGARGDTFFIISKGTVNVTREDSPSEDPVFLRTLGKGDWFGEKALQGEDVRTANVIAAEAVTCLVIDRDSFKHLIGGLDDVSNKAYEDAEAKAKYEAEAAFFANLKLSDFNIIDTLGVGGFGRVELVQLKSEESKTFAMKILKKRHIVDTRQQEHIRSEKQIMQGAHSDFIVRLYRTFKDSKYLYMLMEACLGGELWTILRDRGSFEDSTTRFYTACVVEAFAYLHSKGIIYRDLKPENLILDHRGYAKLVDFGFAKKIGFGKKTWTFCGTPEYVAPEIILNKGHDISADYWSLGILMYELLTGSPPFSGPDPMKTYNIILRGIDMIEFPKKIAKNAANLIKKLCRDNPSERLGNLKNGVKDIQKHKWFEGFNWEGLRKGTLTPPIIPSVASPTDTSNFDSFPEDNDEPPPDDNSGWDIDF
The experiment is described as follows: Inhibition of PRKG1 (unknown origin) assessed as residual activity at 100 nM by KINOMEscan analysis relative to control.

For experiment [8], the species on record is Homo sapiens. The experiment is described as follows: Stabilization of N-terminal His10-tagged recombinant human KRAS G12C/C118S mutant (1 to 169 residues) expressed in Escherichia coli assessed as change in melting temperature at 100 uM with heating from 25 to 85 degreeC by thermal shift assay.
The target in experiment [9] is Proto-oncogene tyrosine-protein kinase ROS (Homo sapiens) (UniProt P08922). The experiment in a line: Inhibition of ROS1 (unknown origin) assessed as residual activity at 100 nM by KINOMEscan analysis relative to control.
The target of experiment [10] is T3, Ephrin type-B receptor 2 (Homo sapiens) (UniProt P29323).
T3 sequence (whole entry): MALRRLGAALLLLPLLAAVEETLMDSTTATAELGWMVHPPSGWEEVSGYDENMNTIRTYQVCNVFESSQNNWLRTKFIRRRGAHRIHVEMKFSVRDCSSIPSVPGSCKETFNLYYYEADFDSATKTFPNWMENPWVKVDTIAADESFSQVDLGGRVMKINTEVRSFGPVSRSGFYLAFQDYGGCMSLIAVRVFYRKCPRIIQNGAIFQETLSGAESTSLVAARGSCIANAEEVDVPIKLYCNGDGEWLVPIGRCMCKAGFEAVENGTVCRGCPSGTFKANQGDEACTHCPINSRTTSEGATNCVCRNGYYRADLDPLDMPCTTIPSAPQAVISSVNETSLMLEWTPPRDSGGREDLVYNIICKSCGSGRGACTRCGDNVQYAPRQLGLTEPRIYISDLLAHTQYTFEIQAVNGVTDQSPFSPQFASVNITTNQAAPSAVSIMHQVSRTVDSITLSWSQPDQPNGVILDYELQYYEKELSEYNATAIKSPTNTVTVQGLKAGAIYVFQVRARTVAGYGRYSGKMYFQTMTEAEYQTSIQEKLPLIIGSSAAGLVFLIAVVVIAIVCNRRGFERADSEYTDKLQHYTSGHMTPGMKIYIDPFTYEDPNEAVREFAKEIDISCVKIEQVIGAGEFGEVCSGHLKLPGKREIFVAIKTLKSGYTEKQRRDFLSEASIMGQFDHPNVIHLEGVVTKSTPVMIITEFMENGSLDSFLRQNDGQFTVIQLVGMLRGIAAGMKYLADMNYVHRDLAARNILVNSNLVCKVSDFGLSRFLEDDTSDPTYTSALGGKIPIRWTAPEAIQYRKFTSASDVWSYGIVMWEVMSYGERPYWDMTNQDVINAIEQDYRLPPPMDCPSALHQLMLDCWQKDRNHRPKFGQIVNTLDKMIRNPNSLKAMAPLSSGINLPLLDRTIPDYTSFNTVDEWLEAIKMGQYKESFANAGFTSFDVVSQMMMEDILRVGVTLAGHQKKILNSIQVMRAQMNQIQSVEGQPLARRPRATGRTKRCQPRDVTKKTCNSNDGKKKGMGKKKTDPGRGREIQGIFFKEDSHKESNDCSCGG
The experiment in a line: Inhibition of EPHB2 (unknown origin) assessed as residual activity at 100 nM by KINOMEscan analysis relative to control.

The source made the active and inactive calls. The rule behind the calls is not given here.

Consider `COc1cc2nc(C)nc(NC(C)c3ccc(-c4cnc5n4CCC5)s3)c2cc1OC` (stereo not given), for which, in [1], the IC50 came to 400 nM.

Regarding `COc1cc2ncnc(N[C@H](C)c3cccc4ccccc34)c2cc1OC`, the Activity in experiment [2] was 83%; in experiment [3] it was 96%; in experiment [4] it was 92%; in experiment [5], 88%; in experiment [7] it was 96%; in experiment [9] it was 100%. The Activity in experiment [10] is 85%. Moreover, in [6], the result was inactive. Besides, the ΔTm in experiment [8] was -1.9 °C.

The values above are taken from ChEMBL document CHEMBL5678818, “Discovery of potent SOS1 inhibitors that block RAS activation via disruption of the RAS-SOS1 interaction” (Proc Natl Acad Sci U S A, 2019).
